Assay results published in patent publication US8748377B2, “Pharmaceutical compositions” (GlaxoSmithKline LLC, priority 2008, dated 2014).
“And” between values parts separate entries of the source, which are not always exact repeats. Identical values can stand only once. Marks after values point to notes of the source that are not given here.

Columns and labels:
type 2 diabetic subjects [1] = assay: Phase 2 randomized, placebo-controlled 16-week trial of weekly, biweekly and monthly albiglutide: glycemic efficacy (A1C, FPG, weight); assay type: in vivo, human; settings: for A1C change from baseline (mean) / FPG change from baseline (mean) / Subjects achieving A1C < 7.0% / A1C reduction compared with placebo (ANCOVA model) / FPG change from baseline compared with placebo: week 16; for FPG reduction in background metformin (MET) subjects: after 16 weeks; for Weight loss: across albiglutide groups
From the text: Main outcome measure was change from baseline A1C, week 16 vs placebo.
Men and women of non-childbearing potential from 18-75 years of age were eligible for inclusion if diagnosed with type 2 diabetes ≧3 months before screening. Subjects were drug-naïve (diet & exercise) or treated with diet and exercise plus metformin as monotherapy stable for >3 months before prescreening (1 week prior to screening visit). […] Additional inclusion criteria included: BMI≧20 and ≦40 kg/m^2 and A1C at screening ≧7% and ≦10%.
A1C and fasting plasma glucose (FPG) measurements were performed at Screening, Baseline, and at Weeks 2 (FPG Only), 4, 5, 7, 8, 9, 12, 15, and 16.
The primary efficacy endpoint was change from baseline A1C at week 16 vs placebo across different doses within each schedule (weekly, biweekly, and monthly). The primary analysis was an ANCOVA model with main effects for treatment group and prior metformin therapy, adjusting for baseline A1C. Dose response was evaluated using contrasts within the ANCOVA model framework. Pairwise comparisons were performed in the same ANCOVA model. Secondary endpoints were analyzed similarly. Responder analysis and incidence of hypoglycemia were summarized by group statistics. […] Safety and tolerability data were collected categorically.
(§1) Comparisons were made on the intent-to-treat population, defined as all randomly assigned subjects with at least one post-baseline assessment of the primary endpoint, using last-observation carried forward. The safety population included all randomized patients who received at least one dose of any medication after being randomized. An interim analysis was conducted at 8 weeks for administrative purposes by an independent statistical analysis group; blinding was retained for study investigators and study personnel with daily operational responsibility.
Patients were also assessed for reduction in fasting plasma glucose (FPG) and HbA1c reduction based on background metformin (MET) treatment.

type 2 diabetic subjects [2] = system: type 2 diabetic subjects; set-up: species or system human; settings: in vivo
Protocol: (§2) Adverse event assessments and safety analyses (including electrocardiograms, vital sign measurements and physical exams) were conducted throughout the study. Nausea and vomiting were monitored for occurrence and duration. Immunogenicity assessments were performed with samples taken at baseline and at weeks 1, 4, 8, and 12, and 16. […] Population PK analysis was performed using a nonlinear mixed-effect modelling approach with NONMEM software (Icon Development Solutions, Ellicott City, Md.).
as §1
Gastrointestinal (GI) adverse events may limit adherence to GLP-1 therapies.

[3] = system: anti-albiglutide antibodies; assay: Phase 2 trial: immunogenicity, anti-albiglutide antibodies via ELISA; assay type: in vivo, human
Protocol: as §2, with “16. Samples were screened for anti-albiglutide antibodies via ELISA (Matthews, et al. J Clin Endocrinol Metab. 2008; DOI: 10.1210/jc.2008-1518).” for “16.”
An 11-week post-treatment washout period was included to monitor development of anti-albiglutide antibodies. […] The appearance of anti-albiglutide antibodies was largely transient, with 1 subject remaining positive at week 27. […] There was no obvious association between presence of anti-albiglutide antibodies and either efficacy or safety.

[4] = Phase 2 trial: pharmacokinetics of albiglutide (plasma ELISA, population PK with NONMEM); assay type: in vivo, human
Protocol: as §2, with “16. Samples were screened for anti-albiglutide antibodies via ELISA (Matthews, et al. J Clin Endocrinol Metab. 2008; DOI: 10.1210/jc.2008-1518).” for “16.”

[5] = system: Japanese subjects with type 2 diabetes; assay: 28-day single-blind placebo-controlled study in Japanese subjects: pharmacodynamics (FPG, AUC0-4 glucose, A1C); assay type: in vivo, human
[6] = 28-day study in Japanese subjects: pharmacokinetics; assay type: in vivo, human; settings: sc abdomen
Protocol: (§3) In the 100 mg monthly group, most common AEs were flatulence (n=3, 38%), vomiting (n=3, 38%) and nausea (n=2, 25%).

[7] = system: Japanese subjects with type 2 diabetes; assay: 28-day study in Japanese subjects: safety/tolerability; assay type: in vivo, human
Protocol: as §3

[8] = Baggio, et al. Diabetes 53:2492-2500, 2004; cited from earlier work
[9] = 30 mg weekly sc, listed as albiglutide
[10] = 50 mg biweekly sc, listed as ALB
[11] = 50 mg biweekly sc, listed as albiglutide
[12] = 100 mg monthly sc, listed as ALB
[13] = 100 mg monthly sc, listed as albiglutide

Albiglutide: Long-acting GLP-1 receptor agonist: two DPP-4-resistant human GLP-1 analogs (GLP-1(7-36)(A8G)) fused to human albumin; SEQ ID NO:1
A1C change from baseline (mean) (type 2 diabetic subjects [1]; 4 mg weekly sc): −0.11% | FPG change from baseline (mean) (type 2 diabetic subjects [1]; 4 mg weekly sc): -0.47 ± 3.1 mmol/L | Subjects achieving A1C < 7.0% (type 2 diabetic subjects [1]; 4 mg weekly sc): 17.6% | A1C change from baseline (mean) (type 2 diabetic subjects [1]; 4 mg weekly sc, listed as ALB): −0.1 ± 1.2% | A1C change from baseline (mean) (type 2 diabetic subjects [1]; 15 mg biweekly sc): −0.56% | FPG change from baseline (mean) (type 2 diabetic subjects [1]; 15 mg biweekly sc): -1.28 ± 2.4 mmol/L | Subjects achieving A1C < 7.0% (type 2 diabetic subjects [1]; 15 mg biweekly sc): 26.7% | A1C change from baseline (mean) (type 2 diabetic subjects [1]; 15 mg biweekly sc, listed as ALB): −0.6 ± 1.0% | A1C change from baseline (mean) (type 2 diabetic subjects [1]; 15 mg weekly sc): −0.49% | FPG change from baseline (mean) (type 2 diabetic subjects [1]; 15 mg weekly sc): -0.72 ± 1.7 mmol/L | A1C change from baseline (mean) (type 2 diabetic subjects [1]; 15 mg weekly sc, listed as ALB): −0.5 ± 0.7% | A1C change from baseline (mean) (type 2 diabetic subjects [1]; 30 mg biweekly sc): −0.79 ± % | FPG change from baseline (mean) (type 2 diabetic subjects [1]; 30 mg biweekly sc): -1.58 ± 2.1 mmol/L | Subjects achieving A1C < 7.0% (type 2 diabetic subjects [1]; 30 mg biweekly sc): 50.0% | A1C change from baseline (mean) (type 2 diabetic subjects [1]; 30 mg biweekly sc, listed as ALB): −0.8 ± 1.0 % | MET patients achieving HbA1c <7% (type 2 diabetic subjects [1]; 30 mg weekly): 43% | A1C change from baseline (mean) (type 2 diabetic subjects [1]; 30 mg weekly sc): −0.87 ± % | A1C change from baseline (mean) (type 2 diabetic subjects [1]; 30 mg weekly sc, listed as ALB): −0.9 ± 0.7 % | FPG change from baseline (mean) (type 2 diabetic subjects [1]; 30 mg weekly sc, listed as ALB): -1.44 ± 2.0 mmol/L | Subjects achieving A1C < 7.0% (type 2 diabetic subjects [1]; 30 mg weekly sc, listed as ALB): 51.7% | A1C change from baseline (mean) (type 2 diabetic subjects [1]; [9]): −0.87% and −0.9% | FPG change from baseline (mean) (type 2 diabetic subjects [1]; [9]): -1.44 mmol/L | Subjects achieving A1C < 7.0% (type 2 diabetic subjects [1]; [9]): 52% | HbA1c reduction in MET subjects (type 2 diabetic subjects [1]; 30 mg weekly, 16 weeks): −0.78% | FPG reduction in background metformin (MET) subjects (type 2 diabetic subjects [1]; 30 mg weekly): -1.26 mmol/L | A1C reduction compared with placebo (ANCOVA model) (type 2 diabetic subjects [1]; 30 mg weekly): −0.62% | FPG change from baseline compared with placebo (type 2 diabetic subjects [1]; 30 mg weekly): -1.38 mmol/L | MET patients achieving HbA1c <7% (type 2 diabetic subjects [1]; 50 mg biweekly): 50% | A1C change from baseline (mean) (type 2 diabetic subjects [1]; 50 mg biweekly sc): −0.79 ± % | A1C change from baseline (mean) (type 2 diabetic subjects [1]; [10]): −0.8 ± 1.0 % | FPG change from baseline (mean) (type 2 diabetic subjects [1]; [10]): -1.32 ± 3.5 mmol/L | Subjects achieving A1C < 7.0% (type 2 diabetic subjects [1]; [10]): 52.9% | A1C change from baseline (mean) (type 2 diabetic subjects [1]; [11]): −0.79% and −0.8% | FPG change from baseline (mean) (type 2 diabetic subjects [1]; [11]): -1.32 mmol/L | Subjects achieving A1C < 7.0% (type 2 diabetic subjects [1]; [11]): 53% | HbA1c reduction in MET subjects (type 2 diabetic subjects [1]; 50 mg biweekly, 16 weeks): −0.83% | FPG reduction in background metformin (MET) subjects (type 2 diabetic subjects [1]; 50 mg biweekly): -2.10 mmol/L | A1C reduction compared with placebo (ANCOVA model) (type 2 diabetic subjects [1]; 50 mg biweekly): −0.57% | FPG change from baseline compared with placebo (type 2 diabetic subjects [1]; 50 mg biweekly): -1.16 mmol/L | A1C change from baseline (mean) (type 2 diabetic subjects [1]; 50 mg monthly sc): −0.55% | FPG change from baseline (mean) (type 2 diabetic subjects [1]; 50 mg monthly sc): -0.72 ± 2.8 mmol/L | Subjects achieving A1C < 7.0% (type 2 diabetic subjects [1]; 50 mg monthly sc): 22.9% | A1C change from baseline (mean) (type 2 diabetic subjects [1]; 50 mg monthly sc, listed as ALB): −0.6 ± 1.0% | MET patients achieving HbA1c <7% (type 2 diabetic subjects [1]; 100 mg monthly): 46% | A1C change from baseline (mean) (type 2 diabetic subjects [1]; 100 mg monthly sc): −0.87 ± % | A1C change from baseline (mean) (type 2 diabetic subjects [1]; [12]): −0.9 ± 0.9 % | FPG change from baseline (mean) (type 2 diabetic subjects [1]; [12]): -1.22 ± 3.5 mmol/L | Subjects achieving A1C < 7.0% (type 2 diabetic subjects [1]; [12]): 48.4% | A1C change from baseline (mean) (type 2 diabetic subjects [1]; [13]): −0.87% and −0.9% | FPG change from baseline (mean) (type 2 diabetic subjects [1]; [13]): -1.22 mmol/L | Subjects achieving A1C < 7.0% (type 2 diabetic subjects [1]; [13]): 48% | HbA1c reduction in MET subjects (type 2 diabetic subjects [1]; 100 mg monthly, 16 weeks): −0.77% | FPG reduction in background metformin (MET) subjects (type 2 diabetic subjects [1]; 100 mg monthly): -1.80 mmol/L | A1C reduction compared with placebo (ANCOVA model) (type 2 diabetic subjects [1]; 100 mg monthly): −0.60% | FPG change from baseline compared with placebo (type 2 diabetic subjects [1]; 100 mg monthly): -1.17 mmol/L | Mean systolic and diastolic blood pressure (type 2 diabetic subjects [1]; 16-week trial): tended to reduce | Plasma lipoprotein profile (type 2 diabetic subjects [1]; 16-week trial): did not significantly change | Weight loss (type 2 diabetic subjects [1]; MET group, 16 weeks): −0.4 to −2.1 kg | Average weight loss (type 2 diabetic subjects [1]; highest dose regimens in each timing schedule, 16 weeks): −1.1 to −1.7 kg | A1C reduction from a mean baseline A1C of 8.0% (type 2 diabetic subjects [1]; maximum doses of each schedule (30 mg weekly, 50 mg biweekly, 100 mg monthly)): 0.8-0.9% | Weight loss (type 2 diabetic subjects [1]; overall population, 16 weeks): −0.9 to −1.8 kg | β-cell function (assessed by HOMA-B) (type 2 diabetic subjects [1]; subjects receiving albiglutide): Small improvements | Documented hypoglycemia (type 2 diabetic subjects [2]): 0-3.1% | Documented hypoglycemia (in words) (type 2 diabetic subjects [2]): not increased | Injection site local skin reactions (type 2 diabetic subjects [2]): 2.9-28.2% | Subjects positive for anti-albiglutide antibodies ([3]; 8 subjects in placebo and albiglutide arms, incl. 1 on placebo and 2 positive at baseline, through week 27): 2.5% | Character of anti-albiglutide antibodies ([3]; antibody-positive subjects): non-neutralizing, low-titer | Steady state achieved after ([4]; 30 mg weekly): 4-5 doses | Tmax ([4]; albiglutide sc): ~72 h | Half-life ([4]; sc, type 2 diabetic subjects): ~120 h | Time to steady state levels after the first dose ([4]; sc, type 2 diabetic subjects): 4-5 weeks | Half-life ([4]; sc, type 2 diabetic subjects, listed as SEQ ID NO:1): about 5 days | A1C, PBO-adjusted change from baseline (LS Means Difference) ([5]; 15 mg weekly, day 29): −0.58*/ % | FPG, PBO-adjusted change from baseline (LS Means Difference) ([5]; 15 mg weekly, day 29): −34.5* mg/dL | A1C, PBO-adjusted change from baseline (LS Means Difference) ([5]; 15 mg weekly, day 43): −0.87* % | A1C, PBO-adjusted change from baseline (LS Means Difference) ([5]; 30 mg weekly, day 29): −0.57*/ % | FPG, PBO-adjusted change from baseline (LS Means Difference) ([5]; 30 mg weekly, day 29): −35.6* mg/dL | A1C, PBO-adjusted change from baseline (LS Means Difference) ([5]; 30 mg weekly, day 43): −0.78* % | A1C, PBO-adjusted change from baseline (LS Means Difference) ([5]; 50 mg biweekly, day 29): −0.63*/ % | FPG, PBO-adjusted change from baseline (LS Means Difference) ([5]; 50 mg biweekly, day 29): −31.3* mg/dL | A1C, PBO-adjusted change from baseline (LS Means Difference) ([5]; 50 mg biweekly, day 43): −0.79* % | A1C, PBO-adjusted change from baseline (LS Means Difference) ([5]; 100 mg monthly, day 29): −0.51*/ % | FPG, PBO-adjusted change from baseline (LS Means Difference) ([5]; 100 mg monthly, day 29): -13.2 mg/dL | A1C, PBO-adjusted change from baseline (LS Means Difference) ([5]; 100 mg monthly, day 43): −0.59* % | Onset of improvement of FPG and weighted mean AUC0-4 glucose ([5]; Japanese subjects): improved as early as day 3 | CL/F [6]: 68.7 mL/h | Plasma t1/2 [6]: 127 h | V/F [6]: 12.6 L | Nausea (AE incidence) ([7]; 100 mg monthly group, n=2): 25% | Flatulence (AE incidence) ([7]; 100 mg monthly group, n=3): 38% | Vomiting (AE incidence) ([7]; 100 mg monthly group, n=3): 38% | Serious AEs ([7]; all doses, 28 days): No serious AEs | Tolerability ([7]; all doses, 28 days): generally well-tolerated | Permeability to the central nervous system [8]: relatively impermeant
